# In US20220411750A1, “CELL STRUCTURE, PRODUCTION METHOD THEREOF, AND METHOD FOR EVALUATING HEPATOTOXICITY OF SUBSTANCE TO BE TESTED” (TOPPAN INC., priority 2019, published 2022):
# Read-outs that look alike come from different tables or passages of the source.
# Legend:
# [1] = test system: liver sinusoidal network of liver model (PXB cells, SEC, LX2); test: Monocrotaline administration experiment, CD31 immunostaining of liver model; assay type: cell-based, human; conditions: monocrotaline 2,000, 666, 222 or 74 μM on Day 1 and Day 4; observed Day 7; 1% DMSO
# Protocol: 1 day (Day 1) and 4 days (Day 4) after the start of the culture of the liver model, administration was performed on the liver model by replacing the medium with a medium containing monocrotaline at a concentration of 2,000 μM, 666 μM, 222 μM, or 74 μM. Here, the compound used was dissolved in advance in DMSO at a high concentration and stored, and during administration, DMSO was contained at a concentration of 1% in the medium. Since 1% DMSO was contained in each administration condition, replacement of the medium with a medium containing only 1% DMSO was performed at the same time, and the result was used as a negative control.
# For the samples on which administration was performed, a fixing treatment, a permeation treatment, blocking, a primary antibody treatment, a secondary antibody treatment, imaging and area calculation and evaluation were performed in that order. Hereinafter, the procedure from the fixing treatment to evaluation will be described. […]
# The intensities of the images captured by the above method were added up to obtain a fluorescence observation image of each liver model.
# [2] = test system: cell structure having a liver sinusoidal network produced using CMF (Example A); test: Toxicity evaluation by ATP assay, cell structure of Example A (produced using CMF); conditions: for IC50: Homo sapiens, read-out: IC50 Example A; for IC50 Example A: ATP assay, drug medium from day 7, replaced day 10, assay after 14 days; for IC50 Example A / MOS value [IC50/Cmax] Example A: cell structure produced using CMF, "Outside" = Outside measurement range; for MOS value [IC50/Cmax] Example A: ATP assay IC50 divided by Cmax
# Protocol: (§1) 100 mg of a type I collagen sponge fragment derived from pig skin (commercially available from NH Foods Ltd.) was heated at 200° C. for 24 hours, and thus a collagen component of which at least a part was cross-linked (cross-linked collagen component) was obtained. […] 50 mg of the cross-linked collagen component was put into a 15 mL tube, 5 mL of ultrapure water was added thereto, and the mixture was homogenized using a homogenizer (VH-10 commercially available from As One Corporation) for 6 minutes.
# (§2) An aqueous solution containing the homogenized cross-linked collagen component was centrifuged at 10,000 rpm for 10 minutes under conditions of 21° C. The supernatant was suctioned, and collagen pellets were mixed with 5 mL of fresh ultrapure water to prepare a collagen solution. While the tube containing the collagen solution was kept on ice, an ultrasonic treatment was performed using a sonicator (VC50 commercially available from Sonics and Materials) at 100 V for 20 seconds, the sonicator was removed, and the tube containing the collagen solution was then cooled on ice for 10 seconds, which was repeated 100 times. After the ultrasonic treatment was performed 100 times, the collagen solution was filtered with a filter having a pore size of 40 μm to obtain a dispersion solution containing a defibrated collagen component (sCMF). The dispersion solution was freeze-dried by a conventional method to obtain a defibrated collagen component (sCMF) as a dried product.
# (§3) A dispersion solution A in which the defibrated collagen component was dispersed in a medium (DMEM) containing serum in which 10 mg/mL of fibrinogen (commercially available from Sigma) was dissolved so that the concentration was 30 mg/mL was obtained. In addition, a dispersion solution B in which cells were dispersed in a medium (DMEM) containing serum in which 10 U/mL of thrombin (commercially available from Sigma) was dissolved so that the total number of cells per well was 30,000 cells. 10 μL of a suspension in which the obtained dispersion solution A (defibrated collagen component) and dispersion solution B were mixed at 1:1 was added to each well of a 48-well plate.
# (§4) Regarding the medium, a mixed medium (mass ratio: 1:1) containing a medium for vascular endothelia 1 (ECM) and a medium for mesenchymal stem cell proliferation (MSCGM2), a medium for vascular endothelia 1 (ECM), or a medium for vascular endothelia 1 (ECM) and a medium for hepatocytes (d-HCGM) were used.
# (§5) 10 days after the start of the culture, again, the medium was replaced with a medium in which the drug was dissolved, and after 14 days, the cell activity was quantified by ATP assay.
# (§6) The toxicity was evaluated with IC50 and MOS value. The MOS value is an index used for toxicity evaluation as a value considering the maximum drug concentration (Cmax).
# [3] = cited from earlier work; for Toxicity: Yes/No, Yes for No. 1-14, No for No. 15-18
# [4] = maximum drug concentration used for MOS value; cited from earlier work
# [5] = test system: cell structure having a liver sinusoidal network produced using heparin and a collagen solution (Example B); test: Toxicity evaluation by ATP assay, cell structure of Example B (produced using heparin and a collagen solution); conditions: for IC50: Homo sapiens, read-out: IC50 Example B; for IC50 Example B: ATP assay, cell structure produced using heparin and collagen solution
# Protocol: as §5
# (§7) PXB cells, SEC and LX2 were mixed so that the following proportions and cell amount were obtained, and thereby a cell mixture was obtained. • Total amount of cells per well: 30,000 cells • Cell proportions in tissue:
# (§8) The same amounts of 1.0 mg/mL heparin solution (buffer: 100 mM Tris-HCL) and 0.3 mg/mL collagen solution (buffer: 5 mM acetate) were mixed to obtain a heparin/collagen solution.
# (§9) 100 μL of the heparin/collagen solution was added to the cell mixture and suspended until the cells were visible, and then centrifuged (400 g×2 min), and a viscous component was formed in the solution.
# (§10) After the supernatant was removed from the solution containing the viscous component, a 20 U/mL thrombin solution (solvent: HCM (culture medium for hepatocytes)) was added so that the final volume of the solution was “the number of wells to be seeded”×2 μL volume of the solution, and thereby a cell suspension was obtained.
# (§11) 10 mg/mL of a fibrinogen solution was put into a 48 plate, and droplets were formed. The cell suspension was added into the droplets, and then left in the incubator for 40 minutes, and a fibrin gel was formed.
# (§12) 0.5 mL of HCM (containing endothelial cell growth supplement) was added to each well in which the fibrin gel was formed, and a liver model was obtained as a cell structure.
# as §6
# [6] = test system: two-dimensional primary human hepatocytes (2D PHH); conditions: literature data, "Outside" = Outside measurement range; cited from earlier work
# [7] = test system: cell structure having a liver sinusoidal network produced using heparin and a collagen solution (Example B); conditions: human
# Protocol: as §5, §7, §8, §9, §10, §11, §12, §6
# [8] = test system: cell structure having a liver sinusoidal network produced using CMF (Example A); conditions: human
# Protocol: as §1, §2, §3, §4, §5, §6
# [9] = test system: 3D human liver microtissues (3D hLiMT); conditions: literature data, "Outside" = Outside measurement range; cited from earlier work
# [10] = "Outside" = Outside measurement range
Structure (SMILES),IC50 [2],Toxicity [3],Cmax [4],IC50 [5],further results
C[C@H]1C(=O)O[C@@H]2CCN3CC=C(COC(=O)[C@](C)(O)[C@]1(C)O)[C@H]23 [monocrotaline],–,–,–,–,Fragmentation of liver sinusoidal network (CD31 immunostaining) [1]: liver sinusoidal network became fragmented as the monocrotaline concentration increased
Cc1ccc(C(=O)c2cc(O)c(O)c([N+](=O)[O-])c2)cc1 [Tolcapone],32.4 µM,Yes,47.6 µM,88.7 µM,–
Nc1cc(N2CCCCC2)nc(N)[n+]1[O-] [Minoxidil0],–,–,1.19 µM,–,"IC50 Example A [2]: Outside; IC50 Example B [5, 10]: Outside"
CCc1nn(CCCN2CCN(c3cccc(Cl)c3)CC2)c(=O)n1CCOc1ccccc1 [Nefazodone],22.1 µM,Yes,4.26 µM,32.4 µM,–
CN(CCOc1ccc(CC2SC(=O)NC2=O)cc1)c1ccccn1 (stereo not drawn) [Rosiglitazone],46.5 µM,Yes,1.04 µM,79.1 µM,MOS value [IC50/Cmax] Reference Example A [6]: Outside
Cc1onc(-c2c(F)cccc2Cl)c1C(=O)N[C@@H]1C(=O)N2[C@@H]1SC(C)(C)[C@@H]2C(=O)O [Flucloxacillin],1390 µM,Yes,66.1 µM,5800 µM,–
CN(C)C(=O)Oc1ccc[n+](C)c1 [Pyridostigmine],–,No,1.1 µM,–,"IC50 Example A [2]: Outside; IC50 Example B [5, 10]: Outside"
COc1ccccc1Oc1c(NS(=O)(=O)c2ccc(C(C)(C)C)cc2)nc(-c2ncccn2)nc1OCCO [Bosentan],67.1 µM,Yes,7.43 µM,209 µM,MOS value [IC50/Cmax] Reference Example A [6]: Outside
C1CCC(C(CC2CCCCN2)C2CCCCC2)CC1 (stereo not drawn) [Perhexiline],5.4 µM,Yes,–,3.2 µM,MOS value [IC50/Cmax] Example B [7]: 1.5; MOS value [IC50/Cmax] Example A [8]: 2.5
CC(=O)Nc1ccc(O)cc1 [Acetaminophen],761 µM,Yes,165 µM,868 µM,–
Cc1ccc(N(CC2=NCCN2)c2cccc(O)c2)cc1 [Phentolamine],180 µM,No,0.09 µM,66 µM,–
O=C(O)Cc1ccccc1Nc1c(Cl)cccc1Cl [Diclofenac],64.1 µM,–,10.1 µM,232 µM,–
CCOC(=O)c1ncn2c1CN(C)C(=O)c1cc(F)ccc1-2 [Flumazenil],–,No,1.12 µM,–,"MOS value [IC50/Cmax] Reference Example A [6]: Outside; MOS value [IC50/Cmax] Reference Example B [9]: Outside; MOS value [IC50/Cmax] Example A [2]: Outside; IC50 Example A [2]: Outside; DILI severity category (LKBT) ([3]; drug-induced liver injury severity category): I; MOS value [IC50/Cmax] Example B ([5]; ATP assay IC50 divided by Cmax, cell structure produced using heparin and collagen, ""Outside"" = Outside measurement range): Outside; IC50 Example B [5, 10]: Outside"
C[C@H]1COc2c(N3CCN(C)CC3)c(F)cc3c(=O)c(C(=O)O)cn1c23 [Levofloxacin],–,Yes,15.8 µM,960 µM,MOS value [IC50/Cmax] Reference Example A [6]: Outside; MOS value [IC50/Cmax] Reference Example B [9]: Outside; MOS value [IC50/Cmax] Example A [2]: Outside
Cc1c(C)c2c(c(C)c1O)CCC(C)(COc1ccc(CC3SC(=O)NC3=O)cc1)O2 (stereo not drawn) [Troglitazone],17.1 µM,Yes,–,50.2 µM,–
CCOC(=O)CN[C@@H](C(=O)N1CC[C@H]1C(=O)NCc1ccc(/C(N)=N\O)cc1)C1CCCCC1 [Ximelagatran],–,Yes,0.45 µM,–,–
O=P1(N(CCCl)CCCl)NCCCO1 (stereo not drawn) [Cyclophosphamide],1670 µM,Yes,143 µM,1360 µM,MOS value [IC50/Cmax] Reference Example A [6]: Outside; MOS value [IC50/Cmax] Reference Example B [9]: Outside
